Measured values taken from patent US20040039022A1, “NMDA receptor agonist pharmaceutical compositions” (Pfizer Inc., priority 2000, published 2004).

Key:
Format in all cases: physicochemical
[1] = Maximum solubility of the Compound; details: at 5° C.
Procedure: A preferred presentation of the composition aspects of the invention comprises the Compound at a concentration of 10 mgA/mL. This concentration is near the maximum solubility of the Compound (about 12 mgA/mL at 5° C.). The preferred solution of the composition is 10 mM lactate buffer. However, those skilled in the art will appreciate that buffer solutions of other anions may be used, including, but not limited to, buffer solutions of the anions acetate, citrate, tartrate and formate.

[2] = pH of buffered 10 mgA/ml formulations of the Compound at 70° C.
Source text: Table 2 exemplifies the use of various buffers to stabilize the pH of formulations containing 10 mgA/ml of the Compound. [table]

[3] = pH shift of aqueous formulations (water only; terminal sterilization of lactate buffered formulation)
Source text: Aqueous solutions of the Compound are susceptible to pH shift. […] When the Compound is formulated with only water, the pH of the formulation increases above 5. This pH shift results in conditions favorable to the oxidative degradation reaction, thus accelerating the degradation of the aqueous formulation. The increase in pH also decreases the solubility of the compound, thereby increasing the possibility of precipitation out of solution. Vials are preferably sterilized by terminal sterilization methods employing an autoclave. Preferably, sterilization is for 8 minutes at 121° C. Sterilization may cause a slight shift of pH. In the lactate buffered formulation, pH shifted slightly down. In order to achieve a mid-point in the preferred pH range, the initial pH is preferably set to 4.5. The terminal sterilization cycle reduces the pH to about 4.2. The pH of the initial formulation is set at pH 4.5 to accommodate the slight pH down-shifting upon terminal sterilization. […] Sodium hydroxide and hydrochloric acid are used as needed to adjust the solution to the desired pH.

maximum solubility [1]: about 12 mgA/mL
pH at 70° C. ([2]; 3 mM lactate, 2 days): 4.21
pH at 70° C. ([2]; 3 mM lactate, 7 days): 4.20
pH at 70° C. ([2]; 3 mM lactate, 21 days): 4.14
pH at 70° C. ([2]; 3 mM lactate, Initial (post-TS)): 4.24
pH at 70° C. ([2]; 10 mM acetate, 4 days): 4.14
pH at 70° C. ([2]; 10 mM acetate, 7 days): 4.14
pH at 70° C. ([2]; 10 mM acetate, 21 days): 4.17
pH at 70° C. ([2]; 10 mM acetate, Initial (post-TS)): 4.16
pH at 70° C. ([2]; 10 mM benzoate, 4 days): 4.16
pH at 70° C. ([2]; 10 mM benzoate, 7 days): 4.20
pH at 70° C. ([2]; 10 mM benzoate, Initial (post-TS)): 4.21
pH at 70° C. ([2]; 10 mM citrate, 2 days): 4.16
pH at 70° C. ([2]; 10 mM citrate, 7 days): 4.17
pH at 70° C. ([2]; 10 mM citrate, 21 days): 4.11
pH at 70° C. ([2]; 10 mM citrate, Initial (post-TS)): 4.16
pH at 70° C. ([2]; 10 mM formate, 2 days): 4.18
pH at 70° C. ([2]; 10 mM formate, 7 days): 4.16
pH at 70° C. ([2]; 10 mM formate, 21 days): 4.13
pH at 70° C. ([2]; 10 mM formate, Initial (post-TS)): 4.17
pH at 70° C. ([2]; 10 mM tartrate, 2 days): 4.17
pH at 70° C. ([2]; 10 mM tartrate, 7 days): 4.17
pH at 70° C. ([2]; 10 mM tartrate, 21 days): 4.07
pH at 70° C. ([2]; 10 mM tartrate, Initial (post-TS)): 4.15
pH of the formulation ([3]; Compound formulated with only water): above 5
pH after terminal sterilization cycle ([3]; lactate buffered formulation, initial pH 4.5, autoclave 8 minutes at 121° C.): about 4.2
Structure (SMILES): C[C@@H]([C@@H](O)c1ccc(O)cc1)N1CCC(O)(c2ccccc2)CC1 [Compound, (1S,2S)-1-(4-Hydroxyphenyl)-2-(4-hydroxy4-phenylpiperidin-1-yl)-1-propanol]
